Legend:
[1] = tested on: GAr-based inhibition of translation; test: Yeast assay (assays described in Lista et al.); format: cell-based, Saccharomyces cerevisiae
Excerpt: A yeast-based (Saccharomyces cerevisiae) assay that recapitulates all the aspects of the GAr-based inhibition of translation, including the GAr-length dependency, has been developed, that allowed understanding the mechanisms of GAr-mediated mRNA translation—suppression in cis, as well as the cellular factors involved (Lista et al. Biotechnol J 2015, 10, 1670-1681). This assay was successfully used to identify small molecular weight compounds that can stimulate EBNA1 expression both in yeast and mammalian cells and that relieve GAr-based limitation of antigen presentation (Voisset et al. Dis Model Mech 2014, 7, 435-444).
Compounds 1a, 2a, 4a, 5a, 7a, 10a and 11a were also tested in the various assay described in Lista et al. (Nat Commun 2017, 8, 16043).

G4-RNA EBNA1 = test: HT-G4-FID assay: Thiazole Orange displacement from G4-RNA; format: binding, Epstein-Barr virus
Experimental: This assay is based on the displacement of a fluorescent indicator (Thiazole Orange, hereinafter TO) from a G4-RNA structure (RNA G-quadruplex of EBNA1) by a putative ligand such as the compounds of the invention (see FIG. 1). This displacement is quantified as % TO displacement. The percentage of TO displacement is calculated from the fluorescence intensity (F) in the presence of a putative ligand, using:
[formula] where F0 is fluorescence intensity of the probe (TO) bound to RNA without added ligand. The percentage of displacement is then plotted as a function of the concentration of added ligand. The RNA affinity of putative ligands is evaluated using the concentration of a ligand required to decrease the fluorescence of the probe by 50% (noted DC50), which is determined graphically from non-linear fitting of the displacement curve. […] 2. Materials and Reagents
Thiazole Orange (TO) and cacodylic acid were purchased from Aldrich and used without further purification. The oligoribonucleotide EBNA1 [5′-r(GGGGCAGGAGCAGGAGGA)-3′] (SEQ ID no 1) purified by reversed-phase HPLC was purchased from Eurogentec.
Stock solutions of the ligands (2 mM in DMSO (dimethylsulfoxyde)) were used for G4-FID assay, unless otherwise stated, and were stored at −20° C. Stock solutions of TO (2 mM in DMSO) were used for G4-FID assay. Fluorescent probe powders and solutions were stored and used, protected from light and used as aliquots to avoid freeze-thaw cycles. HT-G4-FID measurements were performed on a FLUOstar Omega microplate reader (BMG Labtech) with 96-well Non-Binding Surface black with black bottom polystyrene microplates (Corning ref 3650).
For HT-G4-FID assay, the oligonucleotide was dissolved in K^+−100-buffer (10 mM lithium cacodylate, pH 7.3, 100 mM KCl, 1 mM EDTA, 1% DMSO). Oligonucleotide concentrations were determined on the basis of their absorbance at 260 nm. Prior to use, the oligonucleotide was pre-treated by heating at 95° C. for 5 min followed by a slow cooling to 25° C.
Each G4-FID assay is performed in a 96-well microplates. […] The microplate is filled with (a) K^+−100 solution (qs for 200 μL) (b) 10 μL of a solution of pre-folded oligonucleotides (5 μM) and TO (10 μM-2 eq) and (c) an extemporaneously prepared 5 μM ligand solution in K^+−100 buffer (0 to 100 μL along the line of the microplate, i.e., from column […]: 0, 0.125, 0.25, 0.375, 0.5, 0.625, 0.75, 1.0, 1.25, 1.5, 2.0 and 2.5 μM) (see Largy et al., Anal Bioanal Chem 2011, 400, 34193427). After 5 min of orbital shaking at 500 rpm, fluorescence intensity is measured using the following experimental parameters: positioning delay: 0.5 s, 20 flashes per well, emission/excitation filters (nm): 485/520, gain adjusted at 80% of the fluorescence from the most fluorescent well (i.e., a well from column A).
Results are shown in Table 1 below (lower DC50 values indicate higher affinity of compounds to the G4-RNA structure of EBNA1).

quadruplex RNA F-EBNA1-T = test: FRET-melting assay; format: binding, Epstein-Barr virus
Excerpt: The FRET-melting assay is based on thermal denaturation of G4-ARN monitored by fluorescence due to the phenomenon of Förster Resonance Energy Transfer (FRET). This method uses quadruplex-forming RNA sequence dual-labeled with two different fluorophores: a donor (fluorescein, or FAM) and an acceptor (tetramethylrhodamine, or TAMRA). When RNA is folded into G-quadruplex (G4) structure, fluorescence of the donor fluorophore is weak due to strong energy transfer (FRET) to the neighboring acceptor fluorophore. Upon thermal denaturation, the quadruplex unfolds and the fluorophores are separated, leading to decrease of the FRET effect and increase of the fluorescence of the donor (see FIG. 2). By following the fluorescence of the donor as a function of temperature, a melting curve of the G-quadruplex RNA can be obtained, which allows determining the temperature of denaturation at which 50% of the quadruples is unfolded (T1, FIG. 3).
The FRET-melting assay allows assessing the affinity of small molecules (ligands) for the G4-RNA. The addition of a G4-ligand stabilizes the G-quadruplex structure and increases the denaturation temperature. The temperature of denaturation in the presence of ligands (T2) can be compared with that obtained in the absence of ligands (T1). The value of ΔTm (ΔTm=T2−T1) represents a measure of the affinity of the compounds of the invention (ligand). Generally, values of ΔTm>20° C. correspond to ligands of high affinity.
The dual-labeled oligoribonucleotide EBNA1 [5′-FAM-r(GGGGCAGGAGCAGGAGGA)-TAMRA-3′] (SEQ ID no 2) purified by reversed-phase HPLC was purchased from Eurogentec. The donor fluorophore was 6-carboxyfluorescein (FAM) and the acceptor fluorophore was 6-carboxytetramethylrhodamine (TAMRA).
Stock solutions of the ligands (2 mM in DMSO) were used for FRET-melting assay, unless otherwise stated, and were stored at −20° C. FRET-melting measurements are performed on 7900HT Fast Real-Time PCR System (Applied Biosystems) with Microamp Fast optical 96-well reaction plate (Applied Biosystems).
Preparation of Oligonucleotides For FRET-melting assay, oligoribonucleotide F-EBNA1-T was dissolved in K^+10 buffer (10 mM lithium cacodylate buffer, pH 7.3, supplemented with 10 mM KCl and 90 mM LiCl).
Prior to use, all oligonucleotides were pre-treated by heating at 95° C. for 5 min, then rapidly cooled to 4° C. to favor the intramolecular folding by kinetic trapping. Duplex-DNA ds26 (5′CAA-TCG-GAT-CGA-ATT-CGA-TCC-GAT-TG-3′) (SEQ ID no 3) was prepared by heating this self-complementary strand at 90° C. for 5 min in K^+10 buffer followed by a slow cooling over 6 h.
FRET-melting assay is performed in 96-well plates on real time PCR apparatus 7900HT Fast Real-Time PCR System using the heating ramp as follow: 5 min at 25° C., then increase of 0.5° C. every minute until 95° C. Each experimental condition was tested in duplicated in a volume of 25 μL for each sample. The 96-well plates (Applied Biosystems) were prepared by aliquoting the annealed RNA (24 μL of 0.21 μM solution in K^+10 buffer) into each well, followed by 1 μL of ligand solution (25 μM in K^+10 buffer). For competition experiments, duplex competitors were added to 200 nM quadruplex sequences at final concentrations of 3.0 μM (15 eq) and 10.0 μM (50 eq), with a total reaction volume of 25 μL, with the labeled oligoribonucleotide (0.2 μM) and the ligand (1.0 μM). Measurements were made with excitation at 492 nm and detection at 516 nm. The change in the melting temperature in the presence of 1.0 μM putative ligand, ΔTm (1.0 μM), was calculated from at least two experiments by subtraction of the blank from the averaged melting temperature of each compound (1.0 μM).
The results are shown in FIG. 4 and in Table 2 below (higher ΔTm values indicate higher affinity of the compounds to G4-RNA structure of EBNA1).

[2] = tested on: interaction between NCL and the G4s of EBNA1 mRNA; conditions: earlier study, Lista et al. Nat Commun 2017; cited from earlier work

Structure (SMILES): C[n+]1ccc(C=NNC(=O)c2cc(C(=O)NN=Cc3cc[n+](C)cc3)ncn2)cc1.[I-].[I-] [Compound 4a, N′^4,N′^6-Bis[(1-methylpyridinium-4-yl)methylene]pyrimidine-4,6-dicarbohydrazide iodide]
- result in the yeast assay [1]: positive results

Structure (SMILES): C[n+]1ccc(C=NNC(=O)c2cc(C(=O)NN=Cc3cc[n+](C)c4ccccc34)ncn2)c2ccccc21.[I-].[I-] [Compound 5a, N′^4,N′^6-Bis[(1-methylquinolinium-4-yl)methylene]pyrimidine-4,6-dicarbohydrazide iodide]
- result in the yeast assay [1]: positive results

Structure (SMILES): C[n+]1ccc(C=NNC(=O)c2ccc3ccc(C(=O)NN=Cc4cc[n+](C)cc4)nc3n2)cc1.[I-].[I-] [Compound 7a, N′^2,N′^7-Bis[(1-methylpyridinium-4-yl)methylene]-1,8-naphthyridine-2,7-dicarbohydrazide iodide]
- result in the yeast assay [1]: positive results

Structure (SMILES): C[n+]1ccc(C=NNC(=O)c2ccc3ccc4ccc(C(=O)NN=Cc5cc[n+](C)cc5)nc4c3n2)cc1.[I-].[I-] [Compound 10a, N′^2,N′^9-Bis[(1-methylpyridinium-4-yl)methylene]-1,10-phenanthroline-2,9-dicarbohydrazide iodide]
- result in the yeast assay [1]: positive results
- DC50 (G4-RNA EBNA1; K+-100 buffer, pH 7.3, triplicate assays): 320 ± 20 nM
- affinity for the G-quadruplex structure of EBNA1 (in words, FID data) (G4-RNA EBNA1; conclusion from Table 1): particularly high affinity
- ΔTm, ligand + 3 μM ds26 (quadruplex RNA F-EBNA1-T; F-EBNA1-T 0.2 μM, ligand 1.0 μM, K+10 buffer, competitor DNA ds26 3 μM (15 eq)): 15.0 ± 0.6 °C
- ΔTm, ligand + 10 μM ds26 (quadruplex RNA F-EBNA1-T; F-EBNA1-T 0.2 μM, ligand 1.0 μM, K+10 buffer, competitor DNA ds26 10 μM (50 eq)): 12.5 ± 1.5 °C
- ΔTm, ligand alone (quadruplex RNA F-EBNA1-T; F-EBNA1-T 0.2 μM, ligand 1.0 μM, K+10 buffer, no competitor): 15.7 ± 0.6 °C
- affinity for the G-quadruplex structure of EBNA1 (in words, FRET-melting data) (quadruplex RNA F-EBNA1-T; conclusion from Table 2): particularly high affinity

Structure (SMILES): C[n+]1cc(NC(=O)c2ccc3ccc4ccc(C(=O)Nc5cc6ccccc6[n+](C)c5)nc4c3n2)cc2ccccc21 [PhenDC3]
- NCL-EBNA1 mRNA G-quadruplex interaction by PLA [2]: prevented
